Measurements published in patent US11045480B2, “Anti-huLRRC15 antibody drug conjugates and methods for their use” (AbbVie Inc., priority 2015, dated 2021).

What was measured:
[1] = tested on: HN5 (head and neck) xenograft; experiment: HN5 xenograft tumor growth; format: in vivo, mouse; details: HN5, NSG mice; ADC 4.5 mg/kg IP Q4D×6; erlotinib 150 mg/kg orally daily ×10; cetuximab 3 mg/kg IP Q7D×3 (FIG. 20B)
[2] = tested on: MC-38 mouse colorectal cancer; experiment: MC-38 syngeneic tumor growth; format: in vivo
Method: MC-38 mouse colorectal cancer cells (250,000) were implanted subcutaneously into C57BL/6 mice, and mice were randomized when the tumors reached ˜100 mm^3 and dosed with isotype antibodies or ADCs at 12 mg/kg intraperitoneally on a Q4D×6 (one dose given every 4 days for a total of 6 doses), while the anti-PD-1 antibody (“Anti-PD1 mAb”) was dosed intraperitoneally at 2 mg/kg Q4D×6 (one dose given every 4 days for a total of 6 doses).

huM25-vcMMAE-E2: huM25 conjugated with maleimidocaproyl val-cit PABA MMAE, preparation enriched in DAR2 by HIC
TGD [1]: 194%
TGImax [1]: 96%
single agent activity ([2]; MC-38, C57BL/6 mice, ADC 12 mg/kg IP Q4D×6 (FIG. 22C)): did not show single agent activity
TGImax, administered adjunctively with anti-PD-1 antibody ([2]; MC-38, ADC 12 mg/kg IP Q4D×6 plus anti-PD-1 antibody 2 mg/kg IP Q4D×6 (FIG. 22C)): 87%
